{"source": "patent US11547681B2", "about": "“N-acylethanolamide derivatives and uses thereof” (ELIEM THERAPEUTICS, INC., priority 2016, dated 2023)", "key": {"[1]": {"system": "Sprague Dawley rats, carrageenan-induced thermal hyperalgesia", "assay": "Carrageenan-induced inflammatory model, thermal hyperalgesia testing", "assay_type": "in vivo, Sprague Dawley rat", "procedure": "Sixty male Sprague Dawley rats were used in this study. Baseline thermal hyperalgesia thresholds were determined on day -1; animals were divided into 6 groups based on baseline thermal hyperalgesia thresholds. On day 0, animals received an oral dose of vehicle or I-16. Approximately 30 minutes after dosing the animals received an intra-plantar injection of 2% carrageenan solution. The animals were assessed for thermal hyperalgesia approximately 4 and approximately 24 hours after carrageenan injection.\nThermal hyperalgesia was assessed at baseline (prior to dosing with either vehicle or I-16), 4 hours, and 24 hours post-carrageenan injection.\nMean±SEM ipsilateral paw withdrawal latencies following carrageenan injection in vehicle and I-16 treated animals during the pharmacological assessment period (day 0)."}, "[2]": {"assay": "Simulated gastric fluid (SGF) stability, with and without pepsin", "assay_type": "in vitro ADME", "conditions": "for Concentration of analyte I-9: dosed I-9 2 μM"}, "[3]": {"assay": "PEA levels in New Zealand White rabbit plasma samples after oral administration", "assay_type": "in vivo", "conditions": "individual rabbits; Group 3, 32 mg/kg/day; total PEA, ~5 h after morning dosing; listed as PEA-prodrug", "description": "The present Example describes PEA levels observed in rabbit plasma samples after oral administration of compound(s) provided herein. Blood samples were taken approximately five hours after the morning dosing.\nPlasma samples from the current study were not treated to prolong the post-collection stability of the prodrug. Instead, all samples were allowed to stand, thawed and untreated, at room temperature for four hours prior to extraction and analysis. This strategy allowed for any remaining prodrug in the sample to convert to PEA. All reported concentrations are total PEA in the sample.\nSeventy-nine New Zealand White rabbit plasma samples were analyzed with a previously developed LC-MS/MS method for the detection of palmitoylethanolamide (PEA). A total of 79 plasma samples were received for analysis. All samples were received frozen in good condition. Samples were stored at −80° C. until analysis.\nAn LC-MS/MS method for the determination of PEA in plasma was used to quantify samples in this study. See, e.g., Example 3. Study samples were extracted using the methods described in Examples 3-5."}, "[4]": {"assay": "Stability of PEA-prodrug in Sprague-Dawley rat plasma and acidified rat plasma (90 minutes, ice or RT)", "assay_type": "in vitro ADME", "conditions": "1 μg/mL", "procedure": "The stability of the PEA-prodrug I-9 was assessed in Sprague-Dawley rat plasma containing sodium heparin as the anticoagulant, and in acidified rat plasma containing citric acid and formic acid. The acidified plasma was prepared by collecting Sprague-Dawley rat […] over sodium heparin and adding 100 μL of 0.5 M citric acid per mL of blood. The blood was centrifuged to generate plasma, and then 100 μL of 10% formic acid was added per mL of plasma.\nPEA-prodrug was added to each matrix to a final concentration of 1 μg/mL. Triplicate aliquots (50 μL) were immediately collected and added to 150 μL of acetonitrile containing internal standard. The remaining plasma aliquots were split equally. One aliquot was allowed to stand at room temperature while the second was placed on ice. After ninety minutes, triplicate aliquots of each sample were collected and added to acetonitrile. The samples were centrifuged at 13000 rpm for ten minutes, and the resulting supernatant was analyzed using the developed LC-MS/MS method. The peak area response ratios (PARR) of the analyte and internal standard from the incubated samples were then compared to the initial sample to determine the percent PEA prodrug remaining."}, "[5]": {"assay": "Simulated gastric fluid (SGF) stability, with and without pepsin", "assay_type": "in vitro ADME", "conditions": "pH 1.2, 2 μM", "procedure": "Studies were carried out in simulated gastric fluid (SGF). SGF was prepared by dissolving 2.0 g of NaCl and 3.2 g of purified pepsin (derived from porcine stomach mucosa) in 7 mL of 10 N HCl and sufficient water to make 1000 mL. The pH was adjusted to pH 1.2. Control experiments were also run without the addition of pepsin to the matrix. The test article was added into the SGF at 37° C. at a final concentration of 2 μM, and incubated in a shaking water bath at 37° C. Individual tubes were dosed for each time point (0, 15, 30, 60, and 120 minutes). At the appropriate time, 500 μL of ice-cold acetonitrile containing 0.1% formic acid and internal standard was added to a single tube. The starting time of each tube was staggered so that all timepoints finished simultaneously. The samples were then mixed and centrifuged. Calibration standards were prepared in matched matrix. […] Analytical conditions are outlined in Appendix 4-1."}, "[6]": {"assay": "Microsome/S9 fraction control (reaction mixture without microsomal proteins)", "assay_type": "in vitro ADME", "conditions": "for Concentration of analyte I-9: dosed I-9 2 μM", "procedure": "As a control for the liver microsome and intestinal S9 fraction studies, additional experiments were run in reaction mixture, with the exclusion of microsomal proteins. The reaction mixture was prepared as described below. […] Individual tubes were dosed for each time point (0, 10, 20, 30, and 60 minutes). At the appropriate time, 500 μL of ice-cold acetonitrile containing 0.1% formic acid and internal standard was added to a single tube. The starting time of each tube was staggered so that all timepoints finished simultaneously. […] Calibration standards were prepared in matched matrix. […] Analytical conditions are outlined in Appendix 4-1."}, "[7]": {"assay": "PEA levels in New Zealand White rabbit plasma samples after oral administration", "assay_type": "in vivo", "conditions": "individual rabbits, predose"}}, "note": "Entries after “also recorded” stand apart in the source; their conditions may differ.", "data": [{"smiles": "CCCCCCCCCCCCCCCC(=O)NCCOC(=O)CCC(=O)OC(COC(=O)CCC)COC(=O)CCC", "note": "[Compound I-16]", "values": [{"measurement": "effect on thermal hyperalgesia induced by carrageenan", "setting": "[1]; I-16 10.25 mg/kg PO (5 mg/kg equivalents of PEA), any time point (4 and 24 hours)", "result": "did not significantly reduce; also recorded: no significant effect"}, {"measurement": "effect on thermal hyperalgesia induced by carrageenan", "setting": "[1]; I-16 20.50 mg/kg PO, 4-hour time point, 20.5 mg/kg", "result": "significantly reduced thermal hyperalgesia; also recorded: significantly reducing thermal hyperalgesia"}, {"measurement": "effect on thermal hyperalgesia induced by carrageenan", "setting": "[1]; I-16 20.50 mg/kg PO, 24-hour time point", "result": "did not significantly reduce thermal hyperalgesia"}, {"measurement": "overall effect on thermal hyperalgesia", "setting": "[1]; I-16 10.25 and 20.50 mg/kg PO", "result": "dose- and time-dependent reduction of thermal hyperalgesia"}]}, {"smiles": "CCCCCCCCCCCCCCCC(=O)NCCOC(=O)CCC(=O)OCC(O)CO", "note": "(stereo not shown) [Compound I-9]", "values": [{"measurement": "% Remaining of Initial (n = 1)", "setting": "[2]; SGF w/o pepsin, pH 1.2, 2 μM, 0 min", "result": 100, "unit": "%"}, {"measurement": "% Remaining of Initial (n = 1)", "setting": "[2]; SGF w/o pepsin, pH 1.2, 2 μM, 15 min", "result": 93, "unit": "%"}, {"measurement": "% Remaining of Initial (n = 1)", "setting": "[2]; SGF w/o pepsin, pH 1.2, 2 μM, 60 min", "result": 72, "unit": "%"}, {"measurement": "% Remaining of Initial (n = 1)", "setting": "[2]; SGF w/pepsin, pH 1.2, 2 μM, 30 min", "result": 80, "unit": "%"}, {"measurement": "% Remaining of Initial (n = 1)", "setting": "[2]; SGF w/pepsin, pH 1.2, 2 μM, 120 min", "result": 86, "unit": "%"}, {"measurement": "Concentration of analyte I-9", "setting": "[2]; Matrix 'Human', 0 min", "result": 1520, "unit": "nM"}, {"measurement": "Concentration of analyte I-9", "setting": "[2]; Matrix 'Human', head 10 min", "result": 1450, "unit": "nM"}, {"measurement": "Concentration of analyte I-9", "setting": "[2]; Matrix 'Human', head 20 min", "result": 1210, "unit": "nM"}, {"measurement": "Concentration of analyte I-9", "setting": "[2]; Matrix 'Human', head 30 min", "result": 1400, "unit": "nM"}, {"measurement": "Concentration of analyte I-9", "setting": "[2]; Matrix 'Human', head 60 min", "result": 1310, "unit": "nM"}, {"measurement": "Concentration of analyte I-9", "setting": "[2]; Matrix 'Rat', 0 min", "result": 2070, "unit": "nM"}, {"measurement": "Concentration of analyte I-9", "setting": "[2]; Matrix 'Rat', head 10 min", "result": 1930, "unit": "nM"}, {"measurement": "Concentration of analyte I-9", "setting": "[2]; Matrix 'Rat', head 20 min", "result": 1740, "unit": "nM"}, {"measurement": "Concentration of analyte I-9", "setting": "[2]; Matrix 'Rat', head 30 min", "result": 1490, "unit": "nM"}, {"measurement": "Concentration of analyte I-9", "setting": "[2]; Matrix 'Rat', head 60 min", "result": 1480, "unit": "nM"}, {"measurement": "half-life at 2 μM", "setting": "[2]; pig, simulated gastric fluid with pepsin, SGF w/pepsin, pH 1.2, 2 μM", "result": "> 2", "unit": "h"}, {"measurement": "PEA concentration in plasma, Day 7", "setting": "[3]", "result": "BLOQ (below the limit of quantitation (2.5 ng/mL))"}, {"measurement": "% Remaining", "setting": "[4]; acidified rat plasma (citric and formic acid), RT", "result": 96.0, "unit": "%"}, {"measurement": "% Remaining", "setting": "[4]; acidified rat plasma (citric and formic acid), ice", "result": 107, "unit": "%"}, {"measurement": "% Remaining", "setting": "[4]; rat plasma (sodium heparin), RT", "result": 0.203, "unit": "%"}, {"measurement": "% Remaining", "setting": "[4]; rat plasma (sodium heparin), ice", "result": 73.4, "unit": "%"}, {"measurement": "% Remaining of Initial (n = 1)", "setting": "[5]; SGF w/o pepsin, 30 min", "result": 84, "unit": "%"}, {"measurement": "% Remaining of Initial (n = 1)", "setting": "[5]; SGF w/o pepsin, 120 min", "result": 71, "unit": "%"}, {"measurement": "% Remaining of Initial (n = 1)", "setting": "[5]; SGF w/pepsin, 0 min", "result": 100, "unit": "%"}, {"measurement": "% Remaining of Initial (n = 1)", "setting": "[5]; SGF w/pepsin, 15 min", "result": 95, "unit": "%"}, {"measurement": "% Remaining of Initial (n = 1)", "setting": "[5]; SGF w/pepsin, 60 min", "result": 92, "unit": "%"}, {"measurement": "half-life at 2 μM", "setting": "[5]; simulated gastric fluid without pepsin, SGF w/o pepsin", "result": "> 2", "unit": "h"}, {"measurement": "Concentration of analyte I-9", "setting": "[6]; 0 min", "result": 2240, "unit": "nM"}, {"measurement": "Concentration of analyte I-9", "setting": "[6]; 10 min", "result": 1470, "unit": "nM"}, {"measurement": "Concentration of analyte I-9", "setting": "[6]; 20 min", "result": 1720, "unit": "nM"}, {"measurement": "Concentration of analyte I-9", "setting": "[6]; 30 min", "result": 1500, "unit": "nM"}, {"measurement": "Concentration of analyte I-9", "setting": "[6]; 60 min", "result": 1380, "unit": "nM"}, {"measurement": "half-life at 2 μM", "setting": "[6]; microsome/S9 reaction mixture without microsomal proteins, no microsomal proteins, pH 7.4, 2 μM", "result": "> 1", "unit": "h"}, {"measurement": "% Remaining of Initial (n = 1)", "setting": "[6]; no microsomal proteins, pH 7.4, 2 μM, 0 min", "result": 100, "unit": "%"}, {"measurement": "% Remaining of Initial (n = 1)", "setting": "[6]; no microsomal proteins, pH 7.4, 2 μM, 10 min", "result": 66, "unit": "%"}, {"measurement": "% Remaining of Initial (n = 1)", "setting": "[6]; no microsomal proteins, pH 7.4, 2 μM, 20 min", "result": 77, "unit": "%"}, {"measurement": "% Remaining of Initial (n = 1)", "setting": "[6]; no microsomal proteins, pH 7.4, 2 μM, 30 min", "result": 67, "unit": "%"}, {"measurement": "% Remaining of Initial (n = 1)", "setting": "[6]; no microsomal proteins, pH 7.4, 2 μM, 60 min", "result": 62, "unit": "%"}, {"measurement": "PEA concentration in plasma, Day −3", "setting": "[7]; Group 3, 32 mg/kg/day", "result": "BLOQ (below the limit of quantitation (2.5 ng/mL))"}, {"measurement": "PEA concentration in plasma, Day −5", "setting": "[7]; Group 3, 32 mg/kg/day", "result": "BLOQ (below the limit of quantitation (2.5 ng/mL))"}, {"measurement": "PEA concentration in plasma, Day −3", "setting": "[7]; Group 4, 160 mg/kg/day", "result": "BLOQ (below the limit of quantitation (2.5 ng/mL))"}, {"measurement": "PEA concentration in plasma, Day −5", "setting": "[7]; Group 4, 160 mg/kg/day", "result": "BLOQ (below the limit of quantitation (2.5 ng/mL))"}]}]}
